Source: article PMC10787407, “Regulation of polysaccharide in Wu‐tou decoction on intestinal microflora and pharmacokinetics of small molecular compounds in AIA rats” (Chinese Medicine, 2024)

Assay: PK study of SM components in plasma of AIA rats by UPLC-MS/MS (MG vs MPS group)
Details: for AUC 0-t / AUC 0-∞ / C max / T max / t 1/2 / AUC(0-inf) / Cmax / Tmax / half-life: then oral SM 39.2 g crude drug/kg, plasma, mean ± SEM; for Absorption under the intervention of PS: MPS vs MG group; for Cmax: C max; for Tmax: T max
[1] = MG group: AIA rats, saline 21 days
[2] = MPS group compared with the MG group, AIA rats
[3] = MPS group: AIA rats, oral PS 9.8 g crude drug/kg/day 21 days
[4] = Sprague-Dawley, rat, po, 39.2 g/kg/day, AUC 0-t, MPS group: AIA rats, oral PS 9.8 g crude drug/kg/day 21 days
[5] = Sprague-Dawley, rat, po, 39.2 g/kg/day, MG group: AIA rats, saline 21 days
[6] = Sprague-Dawley, rat, po, 39.2 g/kg/day, MPS group: AIA rats, oral PS 9.8 g crude drug/kg/day 21 days
[7] = Sprague-Dawley, rat, po, 39.2 g/kg/day, t 1/2, MG group: AIA rats, saline 21 days
[8] = Sprague-Dawley, rat, po, 39.2 g/kg/day, t 1/2, MPS group: AIA rats, oral PS 9.8 g crude drug/kg/day 21 days
[9] = Sprague-Dawley, rat, po, 39.2 g/kg/day, AUC 0-t, MG group: AIA rats, saline 21 days

Experimental: In the PK study, 12 SD rats were divided into model group (MG group) and model + polysaccharide group (MPS group). Rats in the MPS group were given PS (9.8 g crude drug/kg/day) by oral administration, while rats in the MG group received the same amount of saline. After continuous administration for 21 days, rats in both groups were given SM (39.2 g crude drug/kg/day), and two groups of rats were subjected to a PK study.
The supernatant was collected and dried with N2, redissolved with 100 μL methanol, and centrifuged again after 10 min centrifugation at 4 °C, 13000 rpm. Then the supernatant was collected for UPLC-MS /MS analysis.
The Shimadzu UPLC-MS/MS system was used for the PK study. […] The multiple reaction monitoring (MRM) mode was used both in positive and negative mode. The MS parameters were as follows: flow rate of heating gas 10 L/min, flow rate of drying gas 10 L/min, flow rate of atomizing gas 3 L/min, interfacial temperature 300 ℃, DL temperature 250 ℃.
Separation was performed using a Waters ACQUITY UPLC BEH C18 column (2.1 mm × 100 mm, 1.7 μm). The mobile phase was 0.1% formic acid water (v/v) (A) and acetonitrile (B).

| Compound | AUC 0-t [1] [ng·h/mL] | AUC 0-∞ [1] [ng·h/mL] | C max [1] [ng/mL] | T max [1] [h] | t 1/2 [1] [h] | AUC 0-t [3] [ng·h/mL] | AUC 0-∞ [3] [ng·h/mL] | C max [3] [ng/mL] | T max [3] [h] | t 1/2 [3] [h] | Absorption under the intervention of PS (AIA rats) | Change of C max after oral PS [2] | AUC 0-t [4] [ng·h/mL] | AUC(0-inf) [5] [ng·h/mL] | AUC(0-inf) [6] [ng·h/mL] | Cmax [5] [ng/mL] | Cmax [6] [ng/mL] | Tmax [5] [h] | Tmax [6] [h] | half-life [8] [h] | also measured |
| --- | --- | --- | --- | --- | --- | --- | --- | --- | --- | --- | --- | --- | --- | --- | --- | --- | --- | --- | --- | --- | --- |
| C[C@]12C[C@@H](O)[C@@H]3C[C@@]1(O[C@@H]1O[C@H](CO)[C@@H](O)[C@H](O)[C@H]1O)[C@@]3(COC(=O)c1ccccc1)C(=O)O2 [Albiflorin] | 424.990 ± 55.691 | 458.506 ± 69.994 | 287.831 ± 42.177 | 0.250 ± 0.001 | 2.488 ± 0.458 | 644.268 ± 174.084 | 698.946 ± 175.788 | 306.851 ± 57.880 | 0.139 ± 0.072 | 1.669 ± 0.080 | increased |  |  |  |  |  |  |  |  |  | Change of AUC 0-t after oral PS [2]: increased; Change of AUC 0-∞ after oral PS [2]: increased |
| CCN1C[C@]2(COC)[C@H](O)C[C@H](OC)[C@@]34[C@@H]5C[C@@]6(O)[C@H](OC(=O)c7ccccc7)[C@@H]5[C@@](O)([C@@H]([C@H](OC)[C@H]23)[C@@H]14)[C@@H](O)[C@@H]6OC [Benzoylaconine] | 0.764 ± 0.082 | 1.015 ± 0.158 | 0.548 ± 0.178 | 0.125 ± 0.072 | 7.430 ± 5.148 | 1.064 ± 0.136 | 1.202 ± 0.128 | 0.720 ± 0.116 | 0.083 ± 0.001 | 3.875 ± 1.842 |  |  |  |  |  |  |  |  |  |  |  |
| COC[C@@]12CC[C@H](OC)[C@]34C([C@H]([C@H](OC)[C@H]13)[C@]1(O)[C@H]3[C@@H](OC(=O)c5ccccc5)[C@](O)(C[C@H]34)[C@@H](OC)[C@@H]1O)N(C)C2 [Benzoylhypaconine] | 1.018 ± 0.049 | 1.123 ± 0.062 | 0.467 ± 0.108 | 0.083 ± 0.001 | 3.938 ± 0.322 | 1.394 ± 0.255 | 1.604 ± 0.229 | 0.861 ± 0.160 | 0.083 ± 0.001 | 4.742 ± 0.904 | increased | increased |  |  |  |  |  |  |  |  | Change of AUC 0-∞ after oral PS [2]: increased |
| COC[C@]12CN(C)C3[C@@H]4[C@H](OC)[C@H]1[C@@]3([C@@H](OC)C[C@H]2O)[C@@H]1C[C@@]2(O)[C@H](OC(=O)c3ccccc3)[C@@H]1[C@]4(O)[C@@H](O)[C@@H]2OC [Benzoylmesaconitine] | 21.413 ± 1.140 | 23.447 ± 1.422 | 14.305 ± 3.689 | 0.139 ± 0.079 | 3.530 ± 0.873 | 25.368 ± 7.147 | 25.465 ± 7.145 | 15.899 ± 4.818 | 0.083 ± 0.001 | 1.723 ± 0.296 |  |  |  |  |  |  |  |  |  |  |  |
| COc1ccc(-c2coc3cc(O[C@@H]4O[C@H](CO)[C@@H](O)[C@H](O)[C@H]4O)ccc3c2=O)cc1O [Calycosin-7-glycoside] | 17.473 ± 2.858 | 18.097 ± 2.629 | 17.607 ± 2.640 | 0.110 ± 0.062 | 2.342 ± 0.959 | 15.987 ± 2.778 | 16.625 ± 2.476 | 15.506 ± 2.308 | 0.083 ± 0.001 | 2.113 ± 0.779 |  |  |  |  |  |  |  |  |  |  |  |
| COc1ccc(-c2coc3cc(O)ccc3c2=O)cc1 [Formononetin] | 15.278 ± 1.823 |  |  |  |  |  |  |  |  |  | decreased | reduced | 12.3 ± 1.98 | 17.5 ± 1.69 | 13.6 ± 1.93 | 7.39 ± 1.16 | 4.5 ± 0.902 | 0.083 ± 0.001 | 0.25 ± 0.001 | 3.76 ± 0.557 | half-life [7]: 4.27 ± 0.406 h |
| CC1(C)[C@@H](O)CC[C@]2(C)[C@H]3C(=O)C=C4[C@@H]5C[C@@](C)(C(=O)O)CC[C@]5(C)CC[C@@]4(C)[C@]3(C)CC[C@@H]12 [Glycyrrhetinic acid] |  |  |  |  |  |  |  |  |  |  |  |  | 30500 | 32900 | 34500 | 7830 ± 283 | 11600 | 2 ± 0.001 | 2 ± 0.001 | 10.8 ± 1.96 | AUC 0-t [9]: 28800 ng·h/mL; half-life [7]: 10.7 ± 3.72 h |
| CC1(C)[C@@H](O[C@H]2O[C@H](C(=O)O)[C@@H](O)[C@H](O)[C@H]2O[C@@H]2O[C@H](C(=O)O)[C@@H](O)[C@H](O)[C@H]2O)CC[C@]2(C)[C@H]3C(=O)C=C4[C@@H]5C[C@@](C)(C(=O)O)CC[C@]5(C)CC[C@@]4(C)[C@]3(C)CC[C@@H]12 [Glycyrrhizic acid] |  |  |  |  | 7.605 ± 1.142 |  |  |  |  |  | increased | significantly increased | 29600 | 25900 | 27400 | 3800 ± 304 | 5200 ± 706 | 0.5 ± 0.001 | 0.667 ± 0.236 | 7.25 ± 0.086 | AUC 0-t [9]: 23100 ng·h/mL |
| O=C(/C=C/c1ccc(O)cc1)c1ccc(O)cc1O [Isoliquiritigenin] |  |  |  |  |  |  |  |  |  |  | increased | significantly increased | 9.47 ± 1.45 | 9.61 ± 1.6 | 10.5 ± 1.27 | 4 ± 0.545 | 5.42 ± 0.422 | 0.083 ± 0.001 | 0.167 ± 0.083 | 3.87 ± 0.889 | AUC 0-t [9]: 8.76 ± 1.42 ng·h/mL; half-life [7]: 3.12 ± 0.571 h |
| O=C1C[C@@H](c2ccc(O)cc2)Oc2cc(O)ccc21 [Liquiritigenin] | 48.549 ± 6.497 | 49.404 ± 6.315 | 25.519 ± 7.560 | 0.139 ± 0.079 | 1.841 ± 0.242 | 47.195 ± 4.360 | 47.548 ± 4.374 | 23.367 ± 4.695 | 0.083 ± 0.001 | 1.448 ± 0.025 |  |  |  |  |  |  |  |  |  |  |  |
| CCN1C[C@]2(COC)CC[C@H](O)[C@]34C1[C@H]([C@H](OC)[C@H]23)[C@@]1(O)C[C@H](OC)[C@H]2C[C@@H]4[C@@H]1[C@H]2O [Neoline] | 7.417 ± 0.718 | 8.058 ± 0.838 | 3.221 ± 1.040 | 0.333 ± 0.118 | 3.245 ± 0.999 | 7.559 ± 0.880 | 7.980 ± 0.757 | 3.695 ± 1.005 | 0.250 ± 0.001 | 2.486 ± 0.349 |  |  |  |  |  |  |  |  |  |  |  |
| CCN1C[C@]2(COC)CC[C@H](OC)[C@]34C1[C@H](C[C@H]23)[C@@]1(O)C[C@H](OC)[C@H]2C[C@@H]4[C@@H]1[C@H]2O [Talatizamine] | 21.996 ± 1.581 | 30.766 ± 4.871 | 3.376 ± 0.595 | 0.417 ± 0.276 | 6.242 ± 1.838 | 22.338 ± 1.786 | 28.106 ± 2.545 | 3.576 ± 0.320 | 0.292 ± 0.093 | 5.163 ± 1.483 |  |  |  |  |  |  |  |  |  |  |  |
